Laboratory results reported in patent US20090197859A1 (Pfizer Inc., priority 2008, published 2009).

Key:
[1] = target: T1, cloned human 5-HT6 receptor (Homo sapiens, UniProt P50406); assay: 5-HT6 Receptor Binding Assay ([3H]-LSD radioligand, SPA); settings: read-out: 5HT6 % inh @ 1 uM
T1 construct: host or cells: HeLa cells, G-418 selection, membrane preparation
Procedure, shortened: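 Membranes from HeLa cells expressing cloned human 5-HT6 receptor, mixed with WGA-coated SPA beads in 20 mM HEPES, 10 mM MgCl2, 150 mM NaCl, 1 mM EDTA pH 7.4 with [3H]-LSD; 1 h at room temperature. Eleven concentrations in duplicate; one-site fit IC50 converted to Ki by Cheng-Prusoff.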

T1 sequence (P50406 whole entry): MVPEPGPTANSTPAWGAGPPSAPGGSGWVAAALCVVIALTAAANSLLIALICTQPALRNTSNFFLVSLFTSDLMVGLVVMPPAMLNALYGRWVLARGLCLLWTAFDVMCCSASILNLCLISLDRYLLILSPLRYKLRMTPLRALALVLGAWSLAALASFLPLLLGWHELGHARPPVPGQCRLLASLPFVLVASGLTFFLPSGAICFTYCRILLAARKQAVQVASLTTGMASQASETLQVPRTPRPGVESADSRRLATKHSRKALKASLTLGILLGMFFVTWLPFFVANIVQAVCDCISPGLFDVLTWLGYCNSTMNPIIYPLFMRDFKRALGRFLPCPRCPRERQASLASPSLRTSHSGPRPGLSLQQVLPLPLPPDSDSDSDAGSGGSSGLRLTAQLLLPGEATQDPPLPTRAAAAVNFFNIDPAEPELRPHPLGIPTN

CN1CCN(c2cccc(C(=O)N(C)Cc3cccc(F)c3)n2)CC1 [Example 70, 6-(4-Methyl-piperazin-1-yl)-pyridine-2-carboxylic acid (3-fluoro-benzyl)-methyl-amide]
inhibition at 1 µM [1]: 74.9% | melting point: 77 to 78 °C

CN1CCN(c2cccc(C(=O)N(C)Cc3cccc(Cl)c3)n2)CC1 [Example 71, 6-(4-Methyl-piperazin-1-yl)-pyridine-2-carboxylic acid (3-chloro-benzyl)-methyl-amide]
inhibition at 1 µM [1]: 87.1% | melting point: 81 to 82 °C

COc1ccccc1CN(C)C(=O)c1cccc(N2CCN(C)CC2)n1 [Example 72, 6-(4-Methyl-piperazin-1-yl)-pyridine-2-carboxylic acid (2-methoxy-benzyl)-methyl-amide]
inhibition at 1 µM [1]: 89.9% | melting point: 75 to 76 °C

Cc1cccc(CN(C)C(=O)c2cccc(N3CCN(C)CC3)n2)c1 [Example 73, 6-(4-Methyl-piperazin-1-yl)-pyridine-2-carboxylic acid methyl-(3-methyl-benzyl)-amide]
inhibition at 1 µM [1]: 91.9% | melting point: 101 to 102 °C

CN1CCN(c2cccc(C(=O)N3CCC[C@H](Oc4cccc(F)c4)C3)n2)CC1 [Example 75, [(S)-3-(3-Fluoro-phenoxy)-piperidin-1-yl]-[6-(4-methyl-piperazin-1-yl)-pyridin-2-yl]-methanone]
inhibition at 1 µM [1]: 97.3% | melting point: 84 to 86 °C

Cc1cccc(O[C@H]2CCCN(C(=O)c3cccc(N4CCN(C)CC4)n3)C2)c1 [Example 76, [6-(4-Methyl-piperazin-1-yl)-pyridin-2-yl]-((S)-3-m-tolyloxy-piperidin-1-yl)-methanone]
inhibition at 1 µM [1]: 99% | melting point: 73 to 75 °C

CN1CCN(c2cccc(C(=O)N3CCC[C@H](Oc4cccc(Cl)c4)C3)n2)CC1 [Example 77, [(S)-3-(3-Chloro-phenoxy)-piperidin-1-yl]-[6-(4-methyl-piperazin-1-yl)-pyridin-2-yl]-methanone]
inhibition at 1 µM [1]: 99.5% | melting point: 78 to 80 °C

CN1CCN(c2cccc(S(=O)(=O)N3CCCCC3c3ccccc3F)n2)CC1 (centres unmarked) [Example 79, 1-{6-[2-(2-Fluoro-phenyl)-piperidine-1-sulfonyl]-pyridin-2-yl}-4-methyl-piperazine]
inhibition at 1 µM [1]: 90.2% | melting point: 195.3 to 196.4 °C

CN1CCCN(c2cccc(C(=O)N3CCCC[C@@H]3c3cccc(F)c3)n2)CC1 [Example 80, [(R)-2-(3-Fluoro-phenyl)-piperidin-1-yl]-[6-(4-methyl-[1,4]diazepan-1-yl)-pyridin-2-yl]-methanone]
inhibition at 1 µM [1]: 91.7% | melting point: 155 to 156.2 °C

CN1CCCN(c2cccc(C(=O)N3CCC[C@H](Oc4cccc(F)c4)C3)n2)CC1 [Example 85, [(S)-3-(3-Fluoro-phenoxy)-piperidin-1-yl]-[6-(4-methyl-[1,4]diazepan-1-yl)-pyridin-2-yl]-methanone]
inhibition at 1 µM [1]: 99.1% | melting point: 113 to 115 °C

Cc1cccc(O[C@H]2CCCN(C(=O)c3cccc(N4CCCN(C)CC4)n3)C2)c1 [Example 86, [6-(4-Methyl-[1,4]diazepan-1-yl)-pyridin-2-yl]-((S)-3-m-tolyloxy-piperidin-1-yl)-methanone]
inhibition at 1 µM [1]: 99.5% | melting point: 118 to 120 °C

CN1CCCN(c2cccc(C(=O)N3CCC[C@H](Oc4cccc(Cl)c4)C3)n2)CC1 [Example 87, [(S)-3-(3-Chloro-phenoxy)-piperidin-1-yl]-[6-(4-methyl-[1,4]diazepan-1-yl)-pyridin-2-yl]-methanone]
inhibition at 1 µM [1]: 98.9% | melting point: 110 to 112 °C

CN1CCN(c2cccc(S(=O)(=O)N3CCC(c4ccccc4F)CC3)n2)CC1 [Example 88, 1-{6-[4-(2-Fluoro-phenyl)-piperidine-1-sulfonyl]-pyridin-2-yl}-4-methyl-piperazine]
inhibition at 1 µM [1]: 102% | melting point: 240.5 to 242 °C

Cc1ccc(CN(C)C(=O)c2cccc(N3CCN(C)CC3)n2)cc1 [Example 90, 6-(4-Methyl-piperazin-1-yl)-pyridine-2-carboxylic acid methyl-(4-methyl-benzyl)-amide]
inhibition at 1 µM [1]: 89.4% | melting point: 98 to 99 °C

CN1CCN(c2cccc(C(=O)N(C)Cc3ccccc3C(F)(F)F)n2)CC1 [Example 92, 6-(4-Methyl-piperazin-1-yl)-pyridine-2-carboxylic acid methyl-(2-trifluoromethyl-benzyl)-amide]
inhibition at 1 µM [1]: 83% | melting point: 199.5 to 200.6 °C

Cc1cccc([C@@H](C)N(C)C(=O)c2cccc(N3CCN(C)CC3)n2)c1 [Example 93, 6-(4-Methyl-piperazin-1-yl)-pyridine-2-carboxylic acid methyl-((R)-1-m-tolyl-ethyl)-amide]
inhibition at 1 µM [1]: 99.4% | melting point: 126 to 128 °C

CN1CCC(c2cccc(C(=O)N3CCC(Oc4ccccc4Cl)CC3)n2)CC1 [Example 96, [4-(2-Chloro-phenoxy)-piperidin-1-yl]-(1′-methyl-1′,2′,3′,4′,5′,6′-hexahydro-[2,4′]bipyridinyl-6-yl)-methanone]
inhibition at 1 µM [1]: 85.8% | melting point: 119 to 121 °C

CN1CC(c2cccc(C(=O)N3CCC(Oc4ccc(F)cc4)CC3)n2)C1 [Example 97, [4-(4-Fluoro-phenoxy)-piperidin-1-yl]-[6-(1-methyl-azetidin-3-yl)-pyridin-2-yl]-methanone]
inhibition at 1 µM [1]: 79.6% | melting point: 141.6 to 142.9 °C

CN1CCN(c2cccc(C(=O)N3CCC(c4ccc(F)cc4F)CC3)n2)CC1 [Example 102, [4-(2,4-Difluoro-phenyl)-piperidin-1-yl]-[6-(4-methyl-piperazin-1-yl)-pyridin-2-yl]-methanone]
inhibition at 1 µM [1]: 98.7% | melting point: 148.6 to 149.5 °C

Cc1ccc(F)cc1C1CCN(C(=O)c2cccc(N3CCN(C)CC3)n2)CC1 [Example 103, [4-(5-Fluoro-2-methyl-phenyl)-piperidin-1-yl]-[6-(4-methyl-piperazin-1-yl)-pyridin-2-yl]-methanone]
inhibition at 1 µM [1]: 101% | melting point: 85.1 to 86.2 °C

Cc1c(F)cccc1C1CCN(C(=O)c2cccc(N3CCN(C)CC3)n2)CC1 [Example 104, [4-(3-Fluoro-2-methyl-phenyl)-piperidin-1-yl]-[6-(4-methyl-piperazin-1-yl)-pyridin-2-yl]-methanone]
inhibition at 1 µM [1]: 101% | melting point: 128.6 to 129.2 °C

Cc1cc(F)ccc1C1CCN(C(=O)c2cccc(N3CCN(C)CC3)n2)CC1 [Example 105, [4-(4-Fluoro-2-methyl-phenyl)-piperidin-1-yl]-[6-(4-methyl-piperazin-1-yl)-pyridin-2-yl]-methanone]
inhibition at 1 µM [1]: 97.6% | melting point: 156.4 to 157.7 °C

Cc1cc(F)ccc1C1CCN(C(=O)c2cccc(C3CCN(C)C3)n2)CC1 (centres unmarked) [Example 106, [4-(4-Fluoro-2-methyl-phenyl)-piperidin-1-yl]-[6-(1-methyl-pyrrolidin-3-yl)-pyridin-2-yl]-methanone]
inhibition at 1 µM [1]: 93.6% | melting point: 116.2 to 117.4 °C

Cc1cccc(F)c1C1CCN(C(=O)c2cccc(C3CCN(C)C3)n2)CC1 (centres unmarked) [Example 111, [4-(2-Fluoro-6-methyl-phenyl)-piperidin-1-yl]-[6-(1-methyl-pyrrolidin-3-yl)-pyridin-2-yl]-methanone]
inhibition at 1 µM [1]: 104% | melting point: 122.6 to 123.2 °C

Cc1ccc(F)cc1C1CCN(C(=O)c2cccc(C3CCN(C)C3)n2)CC1 (centres unmarked) [Example 112, [4-(5-Fluoro-2-methyl-phenyl)-piperidin-1-yl]-[6-(1-methyl-pyrrolidin-3-yl)-pyridin-2-yl]-methanone]
inhibition at 1 µM [1]: 97.7% | melting point: 139.6 to 141.41 °C
